These results are taken from PubChem BioAssay (NCI).

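Results reflect a 48-hour exposure of cells in 96-well plates to compound at five concentrations. Here, GI50 denotes the concentration required for 50% inhibition of growth. TGI: total growth inhibition.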 A value given as a limit tells only on which side of the number the result lay.

Some test systems named below: 786-0 renal; A498 renal; BT-549 breast; COLO 205 colon; DU-145 prostate; MCF7 breast; SF-268 CNS; SNB-19 CNS.
Common to all, as to experiment: growth of human tumour cells (NCI), 48 h

For `CCN1C(=O)N(c2ccccc2)C2NC(=S)N(/N=C/C=C/c3ccccc3)C21` (centres undefined), the GI50 is 0.521 µM in the test with 786-0 renal; 0.105 µM with A498 renal; 0.643 µM with BT-549 breast; 0.344 µM with COLO 205 colon; 0.444 µM with DU-145 prostate; 0.193 µM in the test with MCF7 breast. In addition, the GI50 was 1.02 µM in the test with SF-268 CNS and 0.472 µM in the test on SNB-19 CNS. In addition, the TGI was over 100 µM with 786-0 renal; 0.699 µM in the test on A498 renal; over 24.7 µM with BT-549 breast; 8.7 µM in the test with COLO 205 colon; over 100 µM in the test on DU-145 prostate; over 100 µM with MCF7 breast. The TGI with SF-268 CNS and in the test with SNB-19 CNS was over 100 µM in each case.

Take `CCN1Cc2c(ccc(F)c2C#N)O[C@@H](C)CNC(=O)c2c(N)nn3ccc1nc23`: the GI50 with 786-0 renal is 2.85 µM; with A498 renal, 0.712 µM; in the test with BT-549 breast, 5.98 µM; with COLO 205 colon it was 0.815 µM; with DU-145 prostate, 2.09 µM; in the test with MCF7 breast, 3.23 µM. Moreover, the GI50 with SF-268 CNS is 3.26 µM; in the test with SNB-19 CNS it was 8.93 µM. Further, the TGI with 786-0 renal was 15.9 µM; in the test with A498 renal, 3.9 µM; in the test with BT-549 breast it was 18.5 µM; in the test on COLO 205 colon it was 3.74 µM; in the test with DU-145 prostate, 15.7 µM; in the test on MCF7 breast, 31.1 µM. Further, the TGI worked out at 20.3 µM with SF-268 CNS and 39.3 µM with SNB-19 CNS.

With `O=C1C=CC[C@H](/C=C/c2ccccc2)O1`, the GI50 in the test with 786-0 renal is 6.28 µM; in the test on A498 renal, 1.45 µM; in the test on BT-549 breast it was 2.28 µM; in the test with COLO 205 colon, 2.03 µM; in the test on DU-145 prostate, 2.82 µM; in the test on MCF7 breast it was 1.65 µM. Besides, the results for the GI50 in the test with SF-268 CNS and in the test on SNB-19 CNS were 2.44 µM and 3.61 µM, respectively. In addition, the TGI in the test on 786-0 renal was 24.3 µM; in the test with A498 renal it was 6.91 µM; in the test with BT-549 breast, 19.3 µM; with COLO 205 colon it was 20.2 µM; with DU-145 prostate, 9.07 µM; in the test on MCF7 breast it was over 37.8 µM. For the same molecule, the TGI with SF-268 CNS is 16.6 µM; in the test on SNB-19 CNS it was 22.6 µM.

For `O=Cc1ccccc1B(O)O`, the TGI in the test with 786-0 renal was over 100 µM; with BT-549 breast it was 95.9 µM; with COLO 205 colon it was 40.3 µM; in the test on MCF7 breast it was over 100 µM; in the test with SF-268 CNS, over 100 µM; in the test on SNB-19 CNS it was over 100 µM.

For `NC1=C(c2nc(-c3ccccc3)cs2)C(c2ccc(Br)cc2)c2c(c3ccccc3oc2=O)O1` (centres undefined), the GI50 in the test with 786-0 renal was 75.6 µg/mL; in the test on A498 renal, 33.9 µg/mL; in the test with COLO 205 colon, 78.1 µg/mL; in the test with DU-145 prostate, 128 µg/mL; in the test with MCF7 breast it was over 150 µg/mL; with SF-268 CNS it was 89.7 µg/mL. In addition, the GI50 with SNB-19 CNS was 58.3 µg/mL. For the same molecule, the TGI in the test on 786-0 renal, in the test with A498 renal, with COLO 205 colon, with DU-145 prostate, in the test with MCF7 breast and in the test on SF-268 CNS was over 150 µg/mL each time. The molecule also registered a TGI in the test on SNB-19 CNS of over 150 µg/mL.

Consider `O=C(Nc1ccc2[nH]c(=S)sc2c1)Nc1ccccc1F`, for which the GI50 in the test with 786-0 renal is 51.6 µM; in the test with A498 renal, 40.5 µM; with BT-549 breast, 32 µM; in the test on COLO 205 colon, 24.5 µM; with DU-145 prostate, 59.4 µM; with MCF7 breast it was 36.7 µM. Further, the GI50 in the test on SF-268 CNS is 38.2 µM; with SNB-19 CNS it was 41.8 µM. Further, the TGI in the test on 786-0 renal is over 100 µM; with A498 renal it was over 100 µM; in the test on BT-549 breast, over 100 µM; with COLO 205 colon, 65.4 µM; in the test with DU-145 prostate it was over 100 µM; in the test on MCF7 breast, over 100 µM. Further, the TGI in the test on SF-268 CNS and in the test with SNB-19 CNS was over 100 µM each time.

As for `Nc1nc(N)c2c(n1)NC(c1ccc(F)cc1)C1CCc3ccccc3C1=N2` (centres undefined), the GI50 is 6.9 µM in the test with 786-0 renal; 2.87 µM in the test with A498 renal; 3.89 µM in the test on BT-549 breast; 1.62 µM with COLO 205 colon; 7.45 µM in the test on DU-145 prostate; 2.67 µM with MCF7 breast. In addition, the GI50 was 8.64 µM in the test with SF-268 CNS and 12 µM with SNB-19 CNS. The TGI was 20.1 µM in the test with 786-0 renal; 9.08 µM in the test with A498 renal; 16.6 µM with BT-549 breast; 3.61 µM in the test with COLO 205 colon; 19.8 µM in the test with DU-145 prostate; 11 µM with MCF7 breast. Also, the TGI with SF-268 CNS is 23.7 µM; in the test with SNB-19 CNS it was 24.8 µM.

On to `O=P(CCCCP(=O)(c1ccccc1)c1ccccc1)(c1ccccc1)c1ccccc1.[Cl][Sn]([Cl])([c]1ccccc1)[c]1ccccc1`, for which the GI50 in the test on 786-0 renal is 1.07 µM; in the test on A498 renal it was 2 µM; in the test with BT-549 breast, 1.79 µM; in the test on COLO 205 colon it was 1.78 µM; in the test with DU-145 prostate, 2 µM; in the test on MCF7 breast, 0.876 µM. Moreover, the GI50 in the test with SF-268 CNS was 1.75 µM; with SNB-19 CNS, 4.18 µM. The TGI is 2.48 µM with 786-0 renal; 3.76 µM in the test on A498 renal; 3.86 µM in the test with BT-549 breast; 3.98 µM in the test on COLO 205 colon; 4.52 µM with DU-145 prostate; 2.64 µM in the test on MCF7 breast. Further, the results for the TGI in the test with SF-268 CNS and with SNB-19 CNS were 4.05 µM and 18 µM, respectively.

As for `COc1ccc(/C=C(\C#N)n2nnc3ccccc32)cc1`, the GI50 is 0.63 µM in the test on 786-0 renal; 0.188 µM with A498 renal; 1.11 µM in the test on BT-549 breast; 0.0849 µM in the test with COLO 205 colon; 0.323 µM with DU-145 prostate; 0.328 µM in the test on MCF7 breast. Moreover, the values for the GI50 with SF-268 CNS and in the test with SNB-19 CNS were 2.42 µM and 0.361 µM, respectively. In addition, the TGI in the test on 786-0 renal was 7.22 µM; in the test on A498 renal it was 0.779 µM; in the test on BT-549 breast, 17.1 µM; in the test with COLO 205 colon, 1.31 µM; in the test with MCF7 breast, over 100 µM; in the test on SF-268 CNS, over 100 µM. Also, in the test on SNB-19 CNS, the TGI came to 13.3 µM.

Take `CN(C)CCCN1c2ccccc2C(C)(C)c2ccccc21`: the TGI is 27.7 µM in the test with 786-0 renal; 23 µM in the test with A498 renal; 28.1 µM in the test on BT-549 breast; 27.8 µM in the test on COLO 205 colon; 31.2 µM with DU-145 prostate; 28 µM with MCF7 breast. The TGI in the test on SF-268 CNS was determined as 27.2 µM; in the test with SNB-19 CNS, 28.8 µM.
